# Measured values from US7452905B2, “Phenylalanine derivatives” (Ajinomoto Co., Inc., priority 2000, dated 2008).
# Biological target: T1, integrin α4β7 (Homo sapiens, UniProt P13612+P26010)
# T1 construct: lymphoma cell strain RPMI-8866 of human B cells, known to express integrin α4β7; endogenous in cells; host or cells: RPMI-8866
# T1 sequence (P13612 34-1032): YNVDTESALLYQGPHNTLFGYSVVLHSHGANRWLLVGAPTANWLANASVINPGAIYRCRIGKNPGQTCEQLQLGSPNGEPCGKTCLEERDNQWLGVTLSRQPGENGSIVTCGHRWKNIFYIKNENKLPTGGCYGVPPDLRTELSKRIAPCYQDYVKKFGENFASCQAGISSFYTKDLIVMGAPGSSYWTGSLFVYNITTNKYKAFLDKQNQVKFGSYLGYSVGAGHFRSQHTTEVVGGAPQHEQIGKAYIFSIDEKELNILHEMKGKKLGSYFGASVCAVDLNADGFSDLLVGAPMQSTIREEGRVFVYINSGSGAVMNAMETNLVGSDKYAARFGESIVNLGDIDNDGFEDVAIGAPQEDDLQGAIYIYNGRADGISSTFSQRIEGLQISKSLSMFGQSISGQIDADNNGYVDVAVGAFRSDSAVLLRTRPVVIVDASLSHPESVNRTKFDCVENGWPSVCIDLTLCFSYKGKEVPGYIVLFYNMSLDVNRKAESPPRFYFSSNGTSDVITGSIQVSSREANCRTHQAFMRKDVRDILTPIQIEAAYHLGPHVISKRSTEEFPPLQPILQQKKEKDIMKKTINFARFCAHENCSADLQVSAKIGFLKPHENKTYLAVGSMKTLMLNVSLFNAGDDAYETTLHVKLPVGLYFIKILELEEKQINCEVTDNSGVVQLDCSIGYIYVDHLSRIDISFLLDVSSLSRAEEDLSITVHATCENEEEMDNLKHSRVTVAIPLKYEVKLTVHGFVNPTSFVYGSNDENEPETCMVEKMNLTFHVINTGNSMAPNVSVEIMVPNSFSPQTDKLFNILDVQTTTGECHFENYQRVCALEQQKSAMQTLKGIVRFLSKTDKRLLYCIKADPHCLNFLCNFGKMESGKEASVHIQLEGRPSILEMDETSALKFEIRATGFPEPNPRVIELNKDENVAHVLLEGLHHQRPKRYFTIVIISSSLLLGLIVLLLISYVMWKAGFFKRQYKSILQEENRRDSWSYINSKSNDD
# T1 sequence (P26010 20-798): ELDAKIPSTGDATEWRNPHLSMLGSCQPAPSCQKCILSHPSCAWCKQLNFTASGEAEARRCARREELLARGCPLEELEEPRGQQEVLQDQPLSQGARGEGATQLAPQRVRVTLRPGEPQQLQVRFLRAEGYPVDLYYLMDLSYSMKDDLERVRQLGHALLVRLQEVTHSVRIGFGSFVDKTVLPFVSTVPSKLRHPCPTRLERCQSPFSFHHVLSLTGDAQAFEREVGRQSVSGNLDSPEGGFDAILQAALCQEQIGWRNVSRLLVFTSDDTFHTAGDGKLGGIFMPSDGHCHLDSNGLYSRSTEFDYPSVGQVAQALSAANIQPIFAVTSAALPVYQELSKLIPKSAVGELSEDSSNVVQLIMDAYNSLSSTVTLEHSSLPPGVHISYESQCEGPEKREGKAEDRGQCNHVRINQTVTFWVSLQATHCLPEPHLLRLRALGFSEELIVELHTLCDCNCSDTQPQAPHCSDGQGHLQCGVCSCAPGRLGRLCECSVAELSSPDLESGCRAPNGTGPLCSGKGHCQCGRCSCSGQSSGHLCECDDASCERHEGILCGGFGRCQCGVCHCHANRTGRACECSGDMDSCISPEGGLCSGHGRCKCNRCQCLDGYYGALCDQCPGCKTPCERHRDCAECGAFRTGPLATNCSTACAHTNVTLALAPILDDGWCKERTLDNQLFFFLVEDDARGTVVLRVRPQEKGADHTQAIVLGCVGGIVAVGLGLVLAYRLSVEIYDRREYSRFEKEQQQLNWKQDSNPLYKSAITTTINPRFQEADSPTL
# Test: VCAM antagonistic activity (VCAM-1/α4β7 binding assay), RPMI-8866 cells binding to VCAM-1
# Type: cell-based
# Conditions: RPMI-8866 cells binding to recombinant human VCAM-1, binding buffer with 4 mM MnCl2; 50% binding inhibition; read-out: Antagonistic Activity IC50 α 4 β 7/VCAM
# Experimental: VCAM Antagonistic Activity (VCAM-1/α4β7 Binding Assay)
# The capacity of a test substance antagonistic to the binding of lymphoma cell strain RPMI-8866 of human B cells, known to express integrin α4β7, to VCAM-1 was determined. 100 μl/well of a solution (500 ng/ml) of recombinant human VCAM-1 (R & D systems) solution diluted with buffer A (0.1 M NaHCO3, pH 9.6) was added to a micro titer plate having 96 wells (Nunc Maxisorp). After the incubation at 4° C. overnight, unbound VCAM-1 was removed by washing once with PBS. After completion of the washing, a buffer (buffer B) obtained by diluting Block Ace (Dainippon Pharmaceutical Co., Ltd.) with PBS to ¼ concentration was added in an amount of 150 μl/well. After the incubation at room temperature for 1 hour, buffer B was removed and the plate was washed with PBS once.
# RPMI-8866 cells were incubated in Dulbecco modified Eagle medium containing 10 μg/ml of Calcein-AM (Wako Pure Chemical Industries, Ltd.) (SIGMA, hereinafter referred to as “DMEM”) at 37° C. for 30 minutes to label with fluorescence. The cells were again suspended in a binding buffer (20 mM HEPES, DMEM containing 0.1% BSA) containing 4 mM of MnCl2.
# 50 μl of a test substance of various concentrations obtained by the dilution with the binding buffer was added to the plate. Immediately thereafter, 50 μl (final volume: 100 μl/well) of the fluorescent RPMI-8866 cells (4×10^6 cells/ml) were added thereto, and they were incubated at room temperature for 30 minutes. After the shaking on a plate shaker (IKA MTS-4) at 800 rpm for 30 seconds, the solution was immediately removed to remove the unbound cells. The fluorescence quantity of the bound cells remaining in the wells was determined with a fluorescent plate reader (Wallac 1420 ARVO multi-label counter) (filter excitation wave length: 485 nm, emission wave length: 535 nm). The fluorescent strength thus obtained is proportional to the number of RPMI-8866 cells bound to VCAM-1 and remaining on the plate. The binding rate of each test material in various concentrations was determined while the fluorescent strength of the test material-free well was determined to be 100%. The concentration IC50 for the 50% binding inhibition was calculated.
row,IC50,Compound
1,9.7 nM,O=C(N[C@@H](Cc1ccc(N2C(=O)c3ccccc3C2=O)cc1)C(=O)O)c1c(Cl)cccc1Cl [Example 1]
2,11 nM,Cc1ccc2c(c1)C(=O)N(c1ccc(C[C@H](NC(=O)c3c(Cl)cccc3Cl)C(=O)O)cc1)C2=O [Example 6]
3,24 nM,O=C(N[C@@H](Cc1ccc(N2C(=O)c3ccc([N+](=O)[O-])cc3C2=O)cc1)C(=O)O)c1c(Cl)cccc1Cl [Example 9]
4,34 nM,O=C(N[C@@H](Cc1ccc(N2C(=O)Cc3ccccc3C2=O)cc1)C(=O)O)c1c(Cl)cccc1Cl [Example 15]
5,21 nM,O=C(N[C@@H](Cc1ccc(N2C(=O)c3cccc4cccc(c34)C2=O)cc1)C(=O)O)c1c(Cl)cccc1Cl [Example 16]
6,140 nM,O=C(N[C@@H](Cc1ccc(N2Cc3ccccc3C2=O)cc1)C(=O)O)c1c(Cl)cccc1Cl [Example 17]
7,160 nM,O=C(N[C@@H](Cc1ccc(N2CC=CC2=O)cc1)C(=O)O)c1c(Cl)cccc1Cl [Example 25]
8,80 nM,O=C(N[C@@H](Cc1ccc(N2CC=CCC2=O)cc1)C(=O)O)c1c(Cl)cccc1Cl [Example 26]
9,73 nM,O=C(N[C@@H](Cc1ccc(N2CC=CCCC2=O)cc1)C(=O)O)c1c(Cl)cccc1Cl [Example 27]
10,46 nM,Cc1ccc(C)c2c1C(=O)N(c1ccc(C[C@H](NC(=O)c3c(Cl)cccc3Cl)C(=O)O)cc1)C2=O [Example 30]
11,8.9 nM,CN(C)C(=O)c1ccc2c(c1)C(=O)N(c1ccc(C[C@H](NC(=O)c3c(Cl)cccc3Cl)C(=O)O)cc1)C2=O [Example 33]
12,5.8 nM,O=C(N[C@@H](Cc1ccc(N2C(=O)C3=C(CCCC3)C2=O)cc1)C(=O)O)c1c(Cl)cccc1Cl [Example 37]
13,13 nM,O=C(N[C@@H](Cc1ccc(N2C(=O)C3=C(SCCS3)C2=O)cc1)C(=O)O)c1c(Cl)cccc1Cl [Example 38]
14,18 nM,O=C(N[C@@H](Cc1ccc(N2C(=O)[C@@H]3CCCC[C@H]3C2=O)cc1)C(=O)O)c1c(Cl)cccc1Cl [Example 40]
15,21 nM,O=C(N[C@@H](Cc1ccc(N2C(=O)[C@@H]3[C@H](C2=O)[C@@H]2C=C[C@H]3C2)cc1)C(=O)O)c1c(Cl)cccc1Cl [Example 42]
16,43 nM,CC1CCC2C(=O)N(c3ccc(C[C@H](NC(=O)c4c(Cl)cccc4Cl)C(=O)O)cc3)C(=O)C2C1 (some centres unmarked) [Example 43]
17,39 nM,O=C(N[C@@H](Cc1ccc(N2C(=O)[C@@H]3[C@H](C2=O)[C@@H]2C=C[C@H]3CC2)cc1)C(=O)O)c1c(Cl)cccc1Cl [Example 44]
18,19 nM,O=C(N[C@@H](Cc1ccc(N2C(=O)[C@H]3CC=CC[C@H]3C2=O)cc1)C(=O)O)c1c(Cl)cccc1Cl [Example 45]

row,IC50,Compound
1,42 nM,O=C(N[C@@H](Cc1ccc(N2C(=O)C3CC3C2=O)cc1)C(=O)O)c1c(Cl)cccc1Cl (some centres unmarked) [Example 46]
2,92 nM,O=C(N[C@@H](Cc1ccc(N2C(=O)[C@H]3CC[C@H](c4ccccc4)C[C@H]3C2=O)cc1)C(=O)O)c1c(Cl)cccc1Cl [Example 47]
3,21 nM,O=C(N[C@@H](Cc1ccc(N2C(=O)CC3(CCCC3)CC2=O)cc1)C(=O)O)c1c(Cl)cccc1Cl [Example 48]
4,60 nM,CC1(C)[C@H]2CC[C@]1(C)C(=O)N(c1ccc(C[C@H](NC(=O)c3c(Cl)cccc3Cl)C(=O)O)cc1)C2=O [Example 49]
5,10 nM,Cc1cccc2c1C(=O)N(c1ccc(C[C@H](NC(=O)c3c(Cl)cncc3Cl)C(=O)O)cc1)C2=O [Example 59]
6,230 nM,Nc1cccc2c1C(=O)N(c1ccc(C[C@H](NC(=O)c3c(Cl)cccc3Cl)C(=O)O)cc1)C2=O [Example 71]
7,8.5 nM,CCOc1cccc2c1C(=O)N(c1ccc(C[C@H](NC(=O)c3c(Cl)cccc3Cl)C(=O)O)cc1)C2=O [Example 73]
8,110 nM,O=C(N[C@@H](Cc1ccc(N2C(=O)c3cccc(OCc4ccccc4)c3C2=O)cc1)C(=O)O)c1c(Cl)cccc1Cl [Example 74]
9,55 nM,CCCCOc1cccc2c1C(=O)N(c1ccc(C[C@H](NC(=O)c3c(Cl)cccc3Cl)C(=O)O)cc1)C2=O [Example 75]
10,73 nM,O=C(N[C@@H](Cc1ccc(N2C(=O)c3ccc(O)cc3C2=O)cc1)C(=O)O)c1c(Cl)cccc1Cl [Example 77]
11,42 nM,COc1ccc2c(c1)C(=O)N(c1ccc(C[C@H](NC(=O)c3c(Cl)cccc3Cl)C(=O)O)cc1)C2=O [Example 78]
12,86 nM,CCOc1ccc2c(c1)C(=O)N(c1ccc(C[C@H](NC(=O)c3c(Cl)cccc3Cl)C(=O)O)cc1)C2=O [Example 79]
13,80 nM,O=C(N[C@@H](Cc1ccc(N2C(=O)c3ccc(OCc4ccccc4)cc3C2=O)cc1)C(=O)O)c1c(Cl)cccc1Cl [Example 80]
14,900 nM,O=C(N[C@@H](Cc1ccc(N2C(=O)Cc3ccccc3CC2=O)cc1)C(=O)O)c1c(Cl)cccc1Cl [Example 82]
15,0.55 nM,"Cc1cccc2c1C(=O)N(c1ccc(C[C@H](NC(=O)c3c(Cl)cc(-c4nnn[nH]4)cc3Cl)C(=O)O)cc1)C2=O [Example 83, (2S)-2-(2,6-dichloro-4-tetrazolyl-benzoylamino)-3-[4-(4-methyl-1,3-dioxo-1,3-dihydroisoindole-2-yl)phenyl] Propionic Acid]"
16,0.6 nM,Cc1cccc2c1C(=O)N(c1ccc(C[C@H](NC(=O)c3c(Cl)cc(NS(C)(=O)=O)cc3Cl)C(=O)O)cc1)C2=O [Example 84]
17,39 nM,CC(=O)C1Cc2ccccc2C(=O)N1c1ccc(C[C@H](NC(=O)c2c(Cl)cccc2Cl)C(=O)O)cc1 (some centres unmarked) [Example 86]
